Test: logP(HCOOH) reported with HPLC/MS
Details: HCOOH (formic acid), logP(HCOOH), HPLC/MS

Structure (SMILES) | chromatographic logP
Cc1cccc(C2OCCO2)n1 [2-(1,3-dioxolan-2-yl)-6-methylpyridine] | 1.21
CCCCCC(=O)NCc1cccc(CON=C(c2ccccc2)c2nnnn2C)n1 [Example 53, N-({6-[({[(1-methyl-1H-tetrazol-5-yl)(phenyl)methylene]amino}oxy)methyl]pyridin-2-yl}methyl)hexanamide] | 2.88
Cn1nnnc1C(=NOCc1csc(C#CCOCc2ccccc2)n1)c1ccccc1 [Example 263, N-({2-[3-(benzyloxy)prop-1-yn-1-yl]-1,3-thiazol-4-yl}methoxy)-1-(1-methyl-1H-tetrazol-5-yl)-1-phenylmethanimine] | 4.04
CN(C)c1cccc(C(=NOCc2cccc(N)n2)c2nnnn2C)c1 [6-{[({[3-(dimethylamino)phenyl](1-methyl-1H-tetrazol-5-yl)methylene}amino)oxy]methyl}pyridin-2-amine] | 1.19
CSc1cccc(C(=NOCc2cccc(N(CCC3CCCCC3)C(=O)OC(C)(C)C)n2)c2nnnn2C)c1 [tert-butyl (2-cyclohexylethyl)(6-{[({[3-(methylsulfanyl)phenyl](1-methyl-1H-tetrazol-5-yl)methylene}-amino)oxy]methyl}pyridin-2-yl)carbamate] | 6.83
OCc1cccc(C2OCCO2)n1 [[6-(1,3-dioxolan-2-yl)pyridin-2-yl]methanol] | 0.54
CN(C)c1cccc(C(=NO)c2nnnn2C)c1 [3-[(hydroxyimino)(1-methyl-1H-tetrazol-5-yl)methyl]-N,N-dimethylaniline] | 1.17
Cc1cccc(NC(=O)C(C)(C)C)[n+]1[O-] [2,2-dimethyl-N-(6-methyl-1-oxidopyridin-2-yl)propanamide] | 1.5
OCc1nc(Br)ccc1F [(6-bromo-3-fluoropyridin-2-yl)methanol] | 0.92
CSc1cccc(C(=NO)c2nnnn2C)c1 [N-hydroxy-1-[3-(methylsulfanyl)phenyl]-1-(1-methyl-1H-tetrazol-5-yl)methanimine] | 1.98

Same assay, conditions: HPLC, logP(HCOOH), HPLC/MS

Structure (SMILES) | chromatographic logP
Cc1nnnn1C(=NOCc1csc(Br)n1)c1ccccc1 [Example 145, N-[(2-bromo-1,3-thiazol-4-yl)methoxy]-1-(5-methyl-1H-tetrazol-1-yl)-1-phenylmethanimine] | 3.15

Same assay, conditions: logP(HCOOH), HPLC/MS

Structure (SMILES) | chromatographic logP
CON(C)C(=O)c1cccc(SC)c1 [N-methoxy-N-methyl-3-(methylsulfanyl)benzamide] | 1.89
Cn1nnnc1C(=NOCc1cccc(C=O)n1)c1ccccc1 [Example 174, 6-[({[(1-methyl-1H-tetrazol-5-yl)(phenyl)methylene]amino}oxy)methyl]pyridine-2-carbaldehyde] | 2.54

Same assay, conditions: method [a]: HPLC on reversed phase columns, pH 2.3 with 0.1% phosphoric acid and acetonitrile as eluent

Structure (SMILES) | log p
Cn1nnnc1C(=NOCc1cccc(NCCCC2CCCCC2)n1)c1ccccc1 [Example 200] | 3.17^[a]
Cn1nnnc1C(=NOCc1cccc(N(CC2CC2)C(=O)OC(C)(C)C)n1)c1ccccc1 [Example 142] | 4.7^[a]
CCCC#Cc1nc(CON=C(c2ccccc2)c2nnnn2C)cs1 [Example 261] | 3.89^[a]
C#Cc1nc(CON=C(c2ccccc2)c2nnnn2C)cs1 [Example 139] | 2.77^[a]
Cn1nnnc1C(=NOCc1cccc(NCCCCC2CCCCC2)n1)c1ccccc1 [Example 180] | 3.55^[a]
Cn1nnnc1C(=NOCc1cccc(NC/C=C/C#CC(C)(C)C)n1)c1ccccc1 [Example 158] | 3.25^[a]
Cn1nnnc1C(=NOCc1cccc(NCC2CC2(F)F)n1)c1ccccc1 (centres unmarked) [Example 179] | 2.17^[a]

Same assay, conditions: method [b]: LC-MS at pH 2.7, 0.1% formic acid in water and acetonitrile, linear gradient 10% to 95% acetonitrile

Structure (SMILES) | log p
Cn1nnnc1C(=NOCc1cccc(CNC(=O)C(C)(C)C)n1)c1ccccc1 [Example 55] | 2.58^[b]
Cn1nnnc1C(=NOCc1nc(C#CCC2CCCC2)ccc1F)c1ccccc1 [Example 98] | 4.92^[b]
CC(C)CCC#Cc1nc(CON=C(c2ccccc2)c2nnnn2C)c(Cl)s1 [Example 118] | 5.59^[b]
CC(C)NC(=O)c1cccc(CON=C(c2ccccc2)c2nnnn2C)n1 [Example 84] | 2.84^[b]
Cn1nnnc1C(=NOCc1nc(C#CC2CCCCC2)ccc1F)c1ccccc1 [Example 108] | 4.92^[b]
Cn1nnnc1C(=NOCc1nc(C#CCCCCl)ccc1F)c1ccccc1 [Example 105] | 3.87^[b]
Cc1nnnn1C(=NOCc1cccc(NC(=S)NCc2ccccc2)n1)c1ccccc1 [Example 10] | 3.52^[b]
CC(C)CC(=O)NCc1cccc(CON=C(c2ccccc2)c2nnnn2C)n1 [Example 56] | 2.51^[b]
Cn1nnnc1C(=NOCc1nc(C#CC2CCCCC2)sc1Cl)c1ccccc1 [Example 120] | 5.75^[b]
CCCCC#Cc1nc(CON=C(c2ccccc2)c2nnnn2C)c(Cl)s1 [Example 117] | 5.22^[b]
CCCCCOC(=O)NCc1cccc(CON=C(c2ccccc2)c2nnnn2C)n1 [Example 60] | 3.48^[b]
C=CCNC(=S)Nc1cccc(CON=C(c2ccccc2)n2nnnc2C)n1 [Example 11] | 3.09^[b]
Cn1nnnc1C(=NOCc1cccc(C#CC2CC2)n1)c1ccccc1 [Example 109] | 3.46^[b]
Cn1nnnc1C(=NOCc1cccc(CNC(=O)Cc2ccccc2)n1)c1ccccc1 [Example 54] | 2.7^[b]

Same assay, conditions: method [b]: LC-MS at pH 2.7 with 0.1% formic acid in water and acetonitrile (0.1% formic acid), linear gradient 10% to 95% acetonitrile

Structure (SMILES) | log p
CC(C)CSC(=O)Nc1cccc(CON=C(c2ccccc2)c2nnnn2C)n1 [Example 308] | 4.21^[b]
CCOc1ccc(C#Cc2nc(CON=C(c3cccc(F)c3)c3nnnn3C)cs2)cc1 [Example 294] | 4.62^[b]
CCCCCCNc1cccc(CON=C(c2cccc(SC)c2)c2nnnn2C)n1 [Example 296] | 2.78^[b]
Cn1nnnc1C(=NOCc1cccc(NC(=O)SC(C)(C)C)n1)c1ccccc1 [Example 309] | 4.19^[b]
Cn1nnnc1C(=NOCc1cccc(NOCc2ccccc2)n1)c1ccccc1 [Example 285] | 3.14^[b]

Same assay, conditions: method [b]: LC-MS, pH 2.7 with 0.1% formic acid in water and acetonitrile (0.1% formic acid), linear gradient 10% to 95% acetonitrile

Structure (SMILES) | log p
CCCC#Cc1nc(CON=C(c2ccccc2)n2nnnc2C)cs1 [Example 165] | 4.04^[b]
CCCCc1ccc(C#Cc2nc(CON=C(c3ccccc3)c3nnnn3C)cs2)cc1 [Example 202] | 5.82^[b]
CCCOc1ccc(C#Cc2cccc(CON=C(c3ccccc3)c3nnnn3C)n2)cc1 [Example 246] | 4.86^[b]
CC(C)c1ccc(C#Cc2nc(CON=C(c3ccccc3)c3nnnn3C)cs2)cc1 [Example 257] | 5.29^[b]
Cc1nnnn1C(=NOCc1csc(C#CCCc2ccccc2)n1)c1ccccc1 [Example 168] | 4.44^[b]
Cn1nnnc1C(=NOCc1cccc(C#Cc2ccc(C(F)(F)F)cc2)n1)c1ccccc1 [Example 217] | 4.65^[b]
Cn1nnnc1C(=NOCc1csc(C#Cc2cccc(OC(F)(F)F)c2)n1)c1ccccc1 [Example 265] | 4.81^[b]
Cn1nnnc1C(=NOCc1cccc(C#CCOCc2ccccc2)n1)c1ccccc1 [Example 255] | 3.96^[b]
Cc1ccc(C#Cc2cccc(CON=C(c3ccccc3)c3nnnn3C)n2)cc1 [Example 231] | 4.44^[b]
CCCCCC#Cc1nc(CON=C(c2cccc(F)c2)c2nnnn2C)cs1 [Example 152] | 4.94^[b]
Cn1nnnc1C(=NOCc1cccc(C#Cc2ccc(F)cc2)n1)c1ccccc1 [Example 223] | 4.11^[b]
Cn1nnnc1C(=NOCc1csc(Br)n1)c1cccc(F)c1 [Example 146] | 3.23^[b]
Cn1nnnc1C(=NOCc1csc(C#CCCO)n1)c1ccccc1 [Example 198] | 2.3^[b]
Cn1nnnc1C(=NOCc1cccc(C#Cc2cccc(C(F)(F)F)c2)n1)c1ccccc1 [Example 218] | 4.62^[b]
CCCCC#Cc1nc(CON=C(c2ccccc2)n2nnnc2C)cs1 [Example 164] | 4.49^[b]
Cn1nnnc1C(=NOCc1csc(C#CCCc2ccccc2)n1)c1cccc(F)c1 [Example 156] | 4.49^[b]
CCCCOc1ccc(C#Cc2cccc(CON=C(c3ccccc3)c3nnnn3C)n2)cc1 [Example 226] | 5.29^[b]
Cn1nnnc1C(=NOCc1cccc(C#Cc2cc(F)cc(F)c2)n1)c1ccccc1 [Example 233] | 4.31^[b]
COc1ccc(C#Cc2cccc(CON=C(c3ccccc3)c3nnnn3C)n2)cc1 [Example 228] | 4.01^[b]
COC(=O)CCCC#Cc1nc(CON=C(c2ccccc2)c2nnnn2C)cs1 [Example 195] | 3.33^[b]
Cn1nnnc1C(=NOCc1cccc(NCCOC2CCCCC2)n1)c1ccccc1 [Example 203] | 2.35^[b]
Cn1nnnc1C(=NOCc1cccc(C#Cc2ccc3ccccc3c2)n1)c1ccccc1 [Example 208] | 4.78^[b]
Cn1nnnc1C(=NOCc1csc(C#Cc2ccc(OC(F)(F)F)cc2)n1)c1ccccc1 [Example 266] | 4.89^[b]
Cn1nnnc1C(=NOCc1cccc(C#CCCCCl)n1)c1ccccc1 [Example 212] | 3.71^[b]
C#Cc1nc(CON=C(c2cccc(F)c2)c2nnnn2C)cs1 [Example 157] | 2.88^[b]
Cn1nnnc1C(=NOCc1cccc(C#Cc2ccccc2C(F)(F)F)n1)c1ccccc1 [Example 219] | 4.44^[b]
Cn1nnnc1C(=NOCc1cccc(NCCOC2CCCC2)n1)c1ccccc1 [Example 204] | 2.14^[b]
Cn1nnnc1C(=NOCc1cccc(C#CCCC2CCCCC2)n1)c1ccccc1 [Example 237] | 5.62^[b]

Same assay, conditions: reversed phase HPLC column, pH 2.7, log p, method [b]: LC-MS at pH 2.7, 0.1% formic acid in water and acetonitrile, linear gradient 10% to 95% acetonitrile

Structure (SMILES) | chromatographic logP
CCCCCC(=O)NCc1cccc(CON=C(c2ccccc2)c2nnnn2C)n1 [Example 53, N-({6-[({[(1-methyl-1H-tetrazol-5-yl)(phenyl)methylene]amino}oxy)methyl]pyridin-2-yl}methyl)hexanamide] | 2.88

Same assay, conditions: reversed phase HPLC column, pH 2.7, log p, method [b]: LC-MS, pH 2.7 with 0.1% formic acid in water and acetonitrile (0.1% formic acid), linear gradient 10% to 95% acetonitrile

Structure (SMILES) | chromatographic logP
Cn1nnnc1C(=NOCc1csc(C#CCOCc2ccccc2)n1)c1ccccc1 [Example 263, N-({2-[3-(benzyloxy)prop-1-yn-1-yl]-1,3-thiazol-4-yl}methoxy)-1-(1-methyl-1H-tetrazol-5-yl)-1-phenylmethanimine] | 4.04
Cc1nnnn1C(=NOCc1csc(Br)n1)c1ccccc1 [Example 145, N-[(2-bromo-1,3-thiazol-4-yl)methoxy]-1-(5-methyl-1H-tetrazol-1-yl)-1-phenylmethanimine] | 3.15

Same assay, conditions: reversed phase HPLC columns, pH 2.3, log p, method [a]: HPLC on reversed phase columns, pH 2.3 with 0.1% phosphoric acid and acetonitrile as eluent

Structure (SMILES) | chromatographic logP
Cn1nnnc1C(=NOCc1cccc(C=O)n1)c1ccccc1 [Example 174, 6-[({[(1-methyl-1H-tetrazol-5-yl)(phenyl)methylene]amino}oxy)methyl]pyridine-2-carbaldehyde] | 2.54
